Laboratory results reported in patent publication US20190389850A1, “COMPOUNDS” (GLAXOSMITHKLINE INTELLECTUAL PROPERTY DEVELOPMENT LIMITED, priority 2017, published 2019).
Values joined by “and” are separate entries in the source; they are usually repeats but may differ in a detail not shown here. Identical values can stand only once.

Tests used:
[1] = molecular target: T1, recombinant full length LRRK2 protein (LRRK2 Ser935 phosphorylation) (Homo sapiens, UniProt Q5S007); experiment: Recombinant cellular LRRK2 AlphaScreen assay; type: cell-based; conditions: SH-SY5Y cells over-expressing recombinant full length LRRK2, 60 minutes, read-out: pIC50 in the recombinant cellular LRRK2 AlphaScreen assay (converted)
T1 construct: A BacMam virus expressing full length recombinant LRRK2 was purchased from Invitrogen; host or cells: SH-SY5Y human neuroblastoma cells transduced with BacMam LRRK2 virus
From the text: b. Recombinant Cellular LRRK2 AlphaScreen Assay
To determine the activity of compounds against LRRK2 kinase activity in cells, the observed LRRK2 kinase-dependent modulation of LRRK2 Ser 935 phosphorylation (Dzamko et al., 2010, Biochem. J. 430: 405-413) was utilized to develop a quantitative 384 well plate-based immunoassay of LRRK2 Ser935 phosphorylation in the human neuroblastoma cell line SH-SY5Y, engineered to over-express recombinant full length LRRK2 protein.
A BacMam virus expressing full length recombinant LRRK2 was purchased from Invitrogen and amplified by inoculation of SF-9 cells at MOI 0.3 for 4-5 days in Sf-900 III SFM medium supplemented with 3% fetal bovine serum. Infected cell cultures were then centrifuged at 2000 g for 20 minutes, viral supernatant titer determined by anti-gp64 plaque assay and stored at 4° C.
Affinity-purified anti-phospho LRRK2 Ser935 sheep polyclonal antibody (Dzamko et al., 2010, Biochem. J. 430: 405-413) was biotinylated by standard methods (PerkinElmer). Anti-LRRK2 rabbit polyclonal antibody was purchased from Novus Biologicals. AlphaScreen Protein A IgG Kit (including acceptor and donor beads) was purchased from Perkin Elmer.
SH-SY5Y cells were grown in DMEM/F12 medium with 10% dialysed fetal bovine serum and harvested by treatment with 0.5% trypsin-EDTA for 5 minutes at 37° C. followed by centrifugation at 1000 rpm for 4 minutes. The cell pellet was resuspended in Opti-MEM reduced serum media (Invitrogen) at 200,000 cells/ml and mixed with the BacMam LRRK2 virus at MOI=50. 50 μl cell solutions were then dispensed to each well of a 384-well plate and incubated at 37° C., 5% CO2 for 24 hours.
Serial dilutions of test compounds were prepared in Opti-MEM reduced serum media (Invitrogen) and 5.6 ul transferred from compound plate to cell assay plate to achieve a top final assay concentration of 10 uM. DMSO was used in certain wells as controls. Cells were incubated at 37° C., 5% CO2 for 60 minutes. The medium was then removed and cells lysed by addition of 20 ul cell lysis buffer (Cell Signaling Technology) and incubation at 4° C. for 20 minutes. 10 ul of antibody/acceptor bead mix [(1/1000 biotinylated-pS935 LRRK2 antibody, 1/1000 total-LRRK2 antibody, 1/100 Acceptor beads in AlphaScreen detection buffer (25 mM Hepes (pH 7.4), 0.5% Triton X-100, 1 mg/ml Dextran 500 and 0.1% BSA)] was then added to each well and plates incubated for 2 hours at ambient temperature in the dark. 10 μl of donor beads solution (1/33.3 donor beads in AlphaScreen detection buffer) was then added to each well. Following incubation for a further 2 hours at ambient temperature in the dark, plates were read on an EnVision™ plate reader at emission 520-620 nm with excitation 680 nm. Dose response curve data was based on sigmoidal dose-response model.

[2] = molecular target: T2, Full length G2019 human LRRK2 (Homo sapiens, UniProt Q5S007); experiment: Full length G2019 human LRRK2 Inhibition Mass Spectrometry assay; type: biochemical; conditions: LRRKtide to phospho-LRRKtide conversion, RapidFire mass spectrometry; 25 nM LRRK2, 2 mM ATP; read-out: pIC50 in the full length G2019 human LRRK2 Inhibition Mass Spectrometry assay (converted)
T2 construct: purified recombinant Full length Flag-LRRK2; made in house; host or cells: HEK293 6E cells transduced with BacMam virus (virus made in Sf9)
Method: a. Full Length G2019 Human LRRK2 Inhibition Mass Spectrometry Assay
This assay for Leucine Rich Repeat Kinase 2 (LRRK2) inhibition is based on the direct measurement of the peptide ‘LRRKtide’ (LRRKtide: RLGRDKYKT*LRQIRQ and “*” refers to the site of phosphorylation.) and phosphorylated ‘LRRKtide’ using a high throughput RapidFire mass spectrometry assay. Inhibitors are compounds that reduce the conversion of LRRKtide to phospho-LRRKtide.
• 1) A 10 mM test compound was dissolved in 100% DMSO and serially diluted 1 in 4. 100 nL of this dilution series was then added to a 384 well, v bottom polypropylene plate, excluding columns 6 and 18. 100 nL of DMSO was added to columns 6 and 18 as controls wells. […] Test plates were then analysed on an Agilent RapidFire High Throughput solid phase extraction system coupled to AB Sciex API 4000 triple quadropole mass spectrometer with the following setting: RapidFire settings: • Sip Height=2 mm, Aspirate=500 ms, Load time=3000 ms, Elution time=3000 ms, Requilibration=500 ms. • Flow rates: pump 1=1.5 mL/min, pump 2 1.25 mL/min pump 3=0.8 mL/min Mass Spectrometer Settings: • LRRKtide Detection settings: Q1 mass 644.8 Da, Q3 mass 638.8, declustering potential 76 volts, collision energy 37 volts, CXP 34 volts. • Phospho-LRRKtide Detection settings: Q1 mass 671.4 Da, Q3 mass 638.8, Declustering potential 76 volts, Collision energy 37 volts, CXP 34 volts. • A C4 cartridge was used and running buffers were: A (aqueous) 0.1% formic acid in water B (organic) 0.1% formic acid, 80% acetonitrile, 20% water. • Collision gas: 12, Curtain gas: 25, Ion Source gas (1): 60, Ion Source gas (2): 60, Ion Spray Voltage: 5500, Temperature: 600, Interface Heater: ON. • Resolution Q1: low, Resolution Q3: low. • 6) Data was analysed using ActivityBase software (IDBS). A percent conversion from LRRKtide to Phospho-LRRKtide was calculated using the following formula: […]

T1 sequence (Q5S007 whole entry): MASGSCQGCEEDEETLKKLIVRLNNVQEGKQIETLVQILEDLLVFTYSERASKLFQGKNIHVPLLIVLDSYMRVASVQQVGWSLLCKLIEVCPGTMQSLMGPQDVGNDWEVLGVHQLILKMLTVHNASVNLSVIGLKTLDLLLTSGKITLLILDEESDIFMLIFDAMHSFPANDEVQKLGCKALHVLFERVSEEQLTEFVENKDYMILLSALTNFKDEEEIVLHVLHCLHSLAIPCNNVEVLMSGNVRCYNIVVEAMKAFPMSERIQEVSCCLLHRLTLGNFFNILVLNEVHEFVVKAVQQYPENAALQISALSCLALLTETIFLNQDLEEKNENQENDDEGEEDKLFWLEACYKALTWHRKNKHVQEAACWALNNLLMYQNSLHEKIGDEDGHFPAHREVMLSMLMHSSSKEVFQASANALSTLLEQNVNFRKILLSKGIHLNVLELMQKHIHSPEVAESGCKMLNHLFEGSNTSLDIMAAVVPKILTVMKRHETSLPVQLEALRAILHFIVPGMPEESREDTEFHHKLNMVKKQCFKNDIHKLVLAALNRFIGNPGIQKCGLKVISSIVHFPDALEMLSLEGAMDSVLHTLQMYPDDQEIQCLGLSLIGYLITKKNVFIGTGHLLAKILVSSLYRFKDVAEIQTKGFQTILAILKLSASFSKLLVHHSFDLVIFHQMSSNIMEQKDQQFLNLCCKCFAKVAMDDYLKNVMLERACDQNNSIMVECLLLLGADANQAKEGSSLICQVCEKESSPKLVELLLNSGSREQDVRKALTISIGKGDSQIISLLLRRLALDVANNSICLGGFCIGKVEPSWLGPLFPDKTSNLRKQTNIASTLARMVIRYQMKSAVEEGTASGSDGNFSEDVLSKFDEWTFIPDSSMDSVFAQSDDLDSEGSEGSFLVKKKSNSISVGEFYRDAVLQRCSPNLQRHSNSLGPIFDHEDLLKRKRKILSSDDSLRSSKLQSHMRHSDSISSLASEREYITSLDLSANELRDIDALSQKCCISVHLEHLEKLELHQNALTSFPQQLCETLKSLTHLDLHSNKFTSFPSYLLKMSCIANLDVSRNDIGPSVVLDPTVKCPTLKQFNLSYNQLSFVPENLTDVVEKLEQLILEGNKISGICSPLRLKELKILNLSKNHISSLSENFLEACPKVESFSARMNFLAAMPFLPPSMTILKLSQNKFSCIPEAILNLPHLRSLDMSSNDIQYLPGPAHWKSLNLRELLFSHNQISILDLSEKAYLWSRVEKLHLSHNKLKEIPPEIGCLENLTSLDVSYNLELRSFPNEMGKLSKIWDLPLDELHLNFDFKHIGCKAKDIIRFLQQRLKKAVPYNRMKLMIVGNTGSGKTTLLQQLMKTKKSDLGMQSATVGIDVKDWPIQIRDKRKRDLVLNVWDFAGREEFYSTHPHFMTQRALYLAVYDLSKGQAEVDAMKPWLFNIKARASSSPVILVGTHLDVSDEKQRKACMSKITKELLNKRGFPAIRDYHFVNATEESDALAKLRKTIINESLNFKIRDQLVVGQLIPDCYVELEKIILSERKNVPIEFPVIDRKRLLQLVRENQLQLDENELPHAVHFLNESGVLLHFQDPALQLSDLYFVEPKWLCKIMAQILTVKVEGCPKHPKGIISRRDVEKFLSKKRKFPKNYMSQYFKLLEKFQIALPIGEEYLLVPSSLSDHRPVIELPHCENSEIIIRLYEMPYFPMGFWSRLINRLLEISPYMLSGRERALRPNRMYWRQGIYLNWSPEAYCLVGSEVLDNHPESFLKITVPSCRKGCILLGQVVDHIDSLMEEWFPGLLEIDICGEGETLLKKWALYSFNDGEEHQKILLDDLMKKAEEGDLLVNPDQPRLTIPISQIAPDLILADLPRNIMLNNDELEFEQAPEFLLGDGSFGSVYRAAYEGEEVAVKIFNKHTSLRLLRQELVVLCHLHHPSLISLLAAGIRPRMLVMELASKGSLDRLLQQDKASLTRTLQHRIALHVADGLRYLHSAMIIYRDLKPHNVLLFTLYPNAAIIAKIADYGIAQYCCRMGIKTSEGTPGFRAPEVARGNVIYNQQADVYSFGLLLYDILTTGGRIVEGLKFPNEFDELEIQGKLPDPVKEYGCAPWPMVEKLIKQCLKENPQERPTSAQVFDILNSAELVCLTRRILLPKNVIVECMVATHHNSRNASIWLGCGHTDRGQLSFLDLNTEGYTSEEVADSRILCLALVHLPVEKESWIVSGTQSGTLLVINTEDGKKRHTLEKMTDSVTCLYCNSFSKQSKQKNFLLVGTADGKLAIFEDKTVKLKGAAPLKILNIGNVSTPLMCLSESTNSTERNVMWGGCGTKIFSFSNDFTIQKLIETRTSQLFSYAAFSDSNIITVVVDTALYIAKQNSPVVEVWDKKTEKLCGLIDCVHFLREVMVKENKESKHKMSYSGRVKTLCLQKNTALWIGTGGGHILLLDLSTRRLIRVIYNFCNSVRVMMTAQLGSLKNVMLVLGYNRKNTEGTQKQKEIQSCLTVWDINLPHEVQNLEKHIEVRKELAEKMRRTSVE
T2 sequence (Q5S007 with tags, fused parts or gaps R50H): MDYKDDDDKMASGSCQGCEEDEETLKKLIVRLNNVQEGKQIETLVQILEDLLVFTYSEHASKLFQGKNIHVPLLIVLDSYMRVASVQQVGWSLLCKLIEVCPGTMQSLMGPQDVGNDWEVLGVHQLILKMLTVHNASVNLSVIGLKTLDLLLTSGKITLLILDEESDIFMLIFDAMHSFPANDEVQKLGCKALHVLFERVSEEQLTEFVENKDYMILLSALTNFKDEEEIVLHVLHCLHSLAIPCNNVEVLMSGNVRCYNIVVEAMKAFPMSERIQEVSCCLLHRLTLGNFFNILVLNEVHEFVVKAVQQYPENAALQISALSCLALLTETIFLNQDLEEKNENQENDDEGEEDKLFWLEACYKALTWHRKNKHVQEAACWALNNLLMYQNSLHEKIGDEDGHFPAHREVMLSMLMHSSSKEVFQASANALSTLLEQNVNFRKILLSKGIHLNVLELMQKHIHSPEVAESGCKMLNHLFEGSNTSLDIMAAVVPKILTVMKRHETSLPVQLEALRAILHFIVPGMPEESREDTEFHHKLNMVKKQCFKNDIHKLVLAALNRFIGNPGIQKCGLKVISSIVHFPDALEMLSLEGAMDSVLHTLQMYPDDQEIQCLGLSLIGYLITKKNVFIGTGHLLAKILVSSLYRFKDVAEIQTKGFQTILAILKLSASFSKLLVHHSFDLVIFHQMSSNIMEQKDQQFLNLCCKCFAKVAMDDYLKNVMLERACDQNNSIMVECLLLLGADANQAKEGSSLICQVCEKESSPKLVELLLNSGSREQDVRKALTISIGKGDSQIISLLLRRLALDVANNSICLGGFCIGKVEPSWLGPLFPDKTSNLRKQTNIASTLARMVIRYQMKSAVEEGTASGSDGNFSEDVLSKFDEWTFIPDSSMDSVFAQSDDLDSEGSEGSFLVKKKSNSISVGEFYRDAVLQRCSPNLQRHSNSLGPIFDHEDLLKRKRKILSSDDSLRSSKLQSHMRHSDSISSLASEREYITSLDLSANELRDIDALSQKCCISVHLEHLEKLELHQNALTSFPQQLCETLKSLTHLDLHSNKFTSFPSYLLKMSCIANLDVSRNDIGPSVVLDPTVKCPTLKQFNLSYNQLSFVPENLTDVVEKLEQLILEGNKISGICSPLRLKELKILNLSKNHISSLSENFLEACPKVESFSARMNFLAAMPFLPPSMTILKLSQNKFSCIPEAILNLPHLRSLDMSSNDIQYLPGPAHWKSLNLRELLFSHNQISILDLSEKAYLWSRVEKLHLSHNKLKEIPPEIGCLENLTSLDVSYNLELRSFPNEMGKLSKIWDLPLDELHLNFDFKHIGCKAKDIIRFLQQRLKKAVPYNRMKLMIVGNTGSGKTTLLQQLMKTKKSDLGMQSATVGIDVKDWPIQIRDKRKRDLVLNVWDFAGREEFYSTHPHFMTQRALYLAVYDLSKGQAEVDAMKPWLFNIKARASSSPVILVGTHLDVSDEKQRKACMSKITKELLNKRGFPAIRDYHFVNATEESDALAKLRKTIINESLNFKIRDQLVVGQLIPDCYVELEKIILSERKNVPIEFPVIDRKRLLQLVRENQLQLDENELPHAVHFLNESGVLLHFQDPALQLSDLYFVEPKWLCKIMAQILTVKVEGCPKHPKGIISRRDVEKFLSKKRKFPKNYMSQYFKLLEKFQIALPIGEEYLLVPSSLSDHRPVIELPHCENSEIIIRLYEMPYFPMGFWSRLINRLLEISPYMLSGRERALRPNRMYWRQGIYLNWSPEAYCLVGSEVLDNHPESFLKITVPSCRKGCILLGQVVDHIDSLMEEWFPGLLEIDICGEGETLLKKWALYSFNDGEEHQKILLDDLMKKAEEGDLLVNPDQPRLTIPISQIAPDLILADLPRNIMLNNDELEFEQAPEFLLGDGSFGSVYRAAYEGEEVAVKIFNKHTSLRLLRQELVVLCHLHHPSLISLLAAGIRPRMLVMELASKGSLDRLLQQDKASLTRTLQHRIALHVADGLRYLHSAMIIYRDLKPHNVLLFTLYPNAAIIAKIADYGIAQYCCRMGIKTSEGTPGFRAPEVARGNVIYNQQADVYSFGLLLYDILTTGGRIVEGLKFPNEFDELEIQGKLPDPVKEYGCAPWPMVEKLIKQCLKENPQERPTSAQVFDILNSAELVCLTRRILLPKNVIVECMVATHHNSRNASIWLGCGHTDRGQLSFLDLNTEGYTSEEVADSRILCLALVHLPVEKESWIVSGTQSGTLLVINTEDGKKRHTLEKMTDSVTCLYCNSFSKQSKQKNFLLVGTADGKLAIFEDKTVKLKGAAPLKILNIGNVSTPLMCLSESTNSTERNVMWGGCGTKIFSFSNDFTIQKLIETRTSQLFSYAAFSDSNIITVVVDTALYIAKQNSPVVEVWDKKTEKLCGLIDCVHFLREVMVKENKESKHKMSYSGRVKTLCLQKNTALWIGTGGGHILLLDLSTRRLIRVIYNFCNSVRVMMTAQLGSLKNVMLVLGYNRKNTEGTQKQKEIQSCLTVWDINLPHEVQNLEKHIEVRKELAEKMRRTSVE

Structure (SMILES) | IC50 [1] | IC50 [2]
Cc1nc(N2CC(CO)OCC2C)cc(-n2ncc3cc(C)c(C4CCN(C5COC5)CC4)cc32)n1 (single isomer, unassigned) [Example B-6, (5-methyl-4-(2-methyl-6-(5-methyl-6-(1-(oxetan-3-yl)piperidin-4-yl)-1H-indazol-1-yl)pyrimidin-4-yl)morpholin-2-yl)methanol] | 63.1 nM | –
Cc1nc(N2CCO[C@@H](CO)C2)cc(-n2ncc3cc(C)c(C4CCN(C5(C)COC5)CC4)cc32)n1 [Example A-1, (R)-(4-(2-Methyl-6-(5-methyl-6-(1-(3-methyloxetan-3-yl)piperidin-4-yl)-1H-indazol-1-yl)pyrimidin-4-yl)morpholin-2-yl)methanol] | 200 nM | ≤ 100 nM
Cc1nc(N2CCO[C@H](CO)C2)cc(-n2ncc3cc(C)c(C4CCN(C5(C)COC5)CC4)cc32)n1 [Example A-2, (S)-(4-(2-Methyl-6-(5-methyl-6-(1-(3-methyloxetan-3-yl)piperidin-4-yl)-1H-indazol-1-yl)pyrimidin-4-yl)morpholin-2-yl)methanol] | – | ≤ 100 nM
COc1nc(N2CCO[C@H](CO)C2)cc(-n2ncc3cc(C)c(C4CCN(C5(C)COC5)CC4)cc32)n1 [Example A-3, (S)-(4-(2-Methoxy-6-(5-methyl-6-(1-(3-methyloxetan-3-yl)piperidin-4-yl)-1H-indazol-1-yl)pyrimidin-4-yl)morpholin-2-yl)methanol] | ≤ 31.6 nM and 12.6 nM | –
COc1nc(N2CCO[C@@H](CO)C2)cc(-n2ncc3cc(C)c(C4CCN(C5(C)COC5)CC4)cc32)n1 [Example A-4, (R)-(4-(2-Methoxy-6-(5-methyl-6-(l-(3-methyloxetan-3-yl)piperidin-4-yl)-1H-indazol-1-yl)pyrimidin-4-yl)morpholin-2-yl)methanol] | ≤ 31.6 nM | –

Other lines, results leading:

IC50 [1] | IC50 [2] | Structure (SMILES)
50.1 nM | – | Cc1nc(N2CC(C)OC(CO)C2)cc(-n2ncc3cc(C)c(C4CCN(C5COC5)CC4)cc32)n1 (single isomer, unassigned) [Example B-1, (6-Methyl-4-(2-methyl-6-(5-methyl-6-(1-(oxetan-3-yl)piperidin-4-yl)-1H-indazol-1-yl)pyrimidin-4-yl)morpholin-2-yl)methanol]
79.4 nM | – | Cc1nc(N2CC(C)OC(CO)C2)cc(-n2ncc3cc(C)c(C4CCN(C5COC5)CC4)cc32)n1 (single isomer, unassigned) [Example B-2, (6-Methyl-4-(2-methyl-6-(5-methyl-6-(1-(oxetan-3-yl)piperidin-4-yl)-1H-indazol-1-yl)pyrimidin-4-yl)morpholin-2-yl)methanol]
50.1 nM | – | Cc1nc(N2CC(C)OC(CO)C2)cc(-n2ncc3cc(C)c(C4CCN(C5COC5)CC4)cc32)n1 (single isomer, unassigned) [Example B-3, (6-Methyl-4-(2-methyl-6-(5-methyl-6-(1-(oxetan-3-yl)piperidin-4-yl)-1H-indazol-1-yl)pyrimidin-4-yl)morpholin-2-yl)methanol]
316 nM | – | Cc1nc(N2CC(C)OC(CO)C2)cc(-n2ncc3cc(C)c(C4CCN(C5COC5)CC4)cc32)n1 (single isomer, unassigned) [Example B-4, (6-Methyl-4-(2-methyl-6-(5-methyl-6-(1-(oxetan-3-yl)piperidin-4-yl)-1H-indazol-1-yl)pyrimidin-4-yl)morpholin-2-yl)methanol]
79.4 nM | ≤ 100 nM | Cc1nc(N2CCOC(CCO)C2)cc(-n2ncc3cc(C)c(C4CCN(C5COC5)CC4)cc32)n1 (single isomer, unassigned) [Example B-7, 2-(4-(2-methyl-6-(5-methyl-6-(1-(oxetan-3-yl)piperidin-4-yl)-1H-indazol-1-yl)pyrimidin-4-yl)morpholin-2-yl)ethanol]
100 nM | – | Cc1nc(N2CCOC(CCO)C2)cc(-n2ncc3cc(C)c(C4CCN(C5COC5)CC4)cc32)n1 (single isomer, unassigned) [Example B-8, 2-(4-(2-methyl-6-(5-methyl-6-(1-(oxetan-3-yl)piperidin-4-yl)-1H-indazol-1-yl)pyrimidin-4-yl)morpholin-2-yl)ethanol]
